Assay results from article PMC11987438, “A novel approach utilizing spirocyclic thiopyrimidinone compounds against herpes simplex virus with underlying antiviral mechanisms of action” (Virology Journal, 2025).
≈ marks a conversion by molar mass, not a printed value. Entries after “also recorded” stand apart in the source; their conditions may differ.

Columns and labels:
[1] = Cytotoxicity screening via crystal violet assay; format: cell-based; details: African green monkey, Vero cells
Description: A volume of 100 µL of cell suspension containing 10^4 cells was placed in each well of a 96-well plate. The plates containing the cells were then placed in a 5% humidified CO2 incubator at 37 °C for 24 h to allow the cells to form a confluent monolayer. By twofold serial dilution, each compound was diluted in 0.01 mL of medium, starting with a concentration of 1000 µg/ml. The diluted compounds were then cultured for 72 h at 37 °C in an environment with 5% CO2. Each concentration was tested 3 times. After the incubation period, the supernatant was discarded, and the cells were washed with 1x phosphate-buffered saline (PBS). The cells were then fixed with 100 µL of 10% formaldehyde and incubated at room temperature for 20 min. The cells were subsequently washed five times with running water. Next, 50 µL of a 0.1% solution of crystal violet dye (LOBA CHEMIE. LTD; C.I.No. 42555) was added to each well and incubated for 15 min. The cell monolayers were washed again and allowed to air dry. Finally, the crystal violet dye was dissolved by adding 200 µL of methanol, and the mixture was incubated for 20 min. The absorbance was measured via an ELISA plate reader (FLUOstar Omega Ω) at a wavelength of 570 nm. Cell viability was calculated as a percentage of the average optical density of the cell controls, which was set to 100%. The 50% cytotoxic concentration (CC50) was calculated via mean dose‒response curves via GraphPad Prism.

[2] = test system: herpes simplex virus type 2 (HSV-2); test: Antiviral activity screening by MTT; format: cell-based, human herpes simplex virus type 2; details: for IC50: Human alphaherpesvirus 2, HSV-2 (MOI = 1) in Vero cells, 72 h, MTT; for SI: selectivity index, CC50 (Vero) / IC50 (HSV-2)
Description: In accordance with the previous section, the CC50 (50% cytotoxic concentration) of each compound was determined as the starting point for screening its antiviral activity. A volume of 100 µL of cell suspension containing 10^4 cells was added to each well of a 96-well plate. The plates with the cells were then placed in a 5% humidified CO2 incubator at 37 °C for 24 h to allow the cells to adhere and form a monolayer. The cell monolayers were subsequently washed once with 1x phosphate-buffered saline (PBS) and infected with herpes simplex virus type 2 (HSV-2) (MOI = 1) in triplicate for 1 h. After the infection period, 100 µL of each compound’s serial dilution was added to the infected cells. A triplicate of untreated infected cells was included as a positive control (VC), and the mixture was incubated for 72 h at 37 °C in a 5% CO2 incubator. Following the 72-hour incubation, the supernatant medium was removed, and the cell monolayers were washed with 1x PBS. Then, 25 µL of a 0.5 mg/mL solution of MTT (3-(4,5-dimethylthiazol-2-yl)-2,5-diphenyltetrazolium bromide) obtained from Sigma‒Aldrich, Saint Louis, MO, USA, was added to each well and incubated for 2 h at 37 °C. The MTT reagent was subsequently discarded, and 200 µL of acidified isopropanol (1 N HCl in 99.9% isopropanol) was added to dissolve the formazan crystals formed by the viable cells. Finally, the color intensity was measured, and the absorbance was recorded via an ELISA plate reader. The data obtained were used to calculate the IC50 values (50% inhibitory concentration) via nonlinear regression analysis. This was accomplished by plotting the logarithm of the inhibitor concentration against the normalized response. The analysis was performed via GraphPad Prism 5 analysis software.

[3] = test system: herpes simplex virus type 2 (HSV-2); test: Inhibition mechanism of action: virus adsorption; format: cell-based, human herpes simplex virus type 2; details: Vero cells pretreated with compound at safe concentration 1 h at 4 °C, then HSV-2 MOI = 1, 72 h, MTT
Description: To gain a better understanding of how each compound’s antiviral activity inhibits specific steps in the viral cycle, we investigated three mechanisms: virus adsorption, virus replication, and viral fusion (virucidal). For the adsorption mechanism, we seeded 100 µl of cell suspension into 96-well cell culture plates under the previously mentioned conditions. After 24 h, the medium was discarded, and the adherent cells were washed with 1x PBS. Then, we added 100 µl of each promising compound at a pretested safe cytotoxic concentration (CC50) to the cells in triplicate. The plates were then incubated at 4 °C for 1 h to allow the compounds to adsorb onto the cell receptors. After incubation, the compound was removed, and the cells were washed again with 1x PBS. Next, we added 100 µl of the virus mixture (MOI = 1) to each well and incubated it for 1 h at 37 °C in a CO2 incubator. The virus was removed, and the cells were washed once more with 1x PBS. Finally, we added 100 µl of maintenance media containing 3% bovine serum albumin (BSA) and incubated the plates for 72 h at 37 °C in a 5% CO2 incubator. For the replication mechanism, we added 100 µl of diluted virus (MOI = 1) to a preseeded 96-well cell culture plate and incubated it for 1 h at 37 °C in a CO2 incubator. […] Finally, we measured the absorbance at λ = 570 nm via a plate reader (FLUOstar Omega Ω).

[4] = test system: herpes simplex virus type 2 (HSV-2); test: Inhibition mechanism of action: virus replication; format: cell-based, human herpes simplex virus type 2; details: Vero cells infected with HSV-2 MOI = 1 for 1 h, then compound, 72 h, MTT
Description: (§1) To gain a better understanding of how each compound’s antiviral activity inhibits specific steps in the viral cycle, we investigated three mechanisms: virus adsorption, virus replication, and viral fusion (virucidal). For the adsorption mechanism, we seeded 100 µl of cell suspension into 96-well cell culture plates under the previously mentioned conditions. After 24 h, the medium was discarded, and the adherent cells were washed with 1x PBS. Then, we added 100 µl of each promising compound at a pretested safe cytotoxic concentration (CC50) to the cells in triplicate. The plates were then incubated at 4 °C for 1 h to allow the compounds to adsorb onto the cell receptors. After incubation, the compound was removed, and the cells were washed again with 1x PBS. Next, we added 100 µl of the virus mixture (MOI = 1) to each well and incubated it for 1 h at 37 °C in a CO2 incubator. The virus was removed, and the cells were washed once more with 1x PBS. Finally, we added 100 µl of maintenance media containing 3% bovine serum albumin (BSA) and incubated the plates for 72 h at 37 °C in a 5% CO2 incubator. For the replication mechanism, we added 100 µl of diluted virus (MOI = 1) to a preseeded 96-well cell culture plate and incubated it for 1 h at 37 °C in a CO2 incubator. After incubation, the virus was removed, and 100 µl of each compound was added in triplicate. The plates were then incubated for 1 h at 37 °C in a CO2 incubator. Next, 100 µl of maintenance medium was added to each well. For the virucidal mechanism, we mixed an equal volume of the safe concentration of the pretested compound with the virus dilution (MOI = 1) and incubated the mixture at room temperature for 1 h. We subsequently prepared twofold serial dilutions of the mixture and inoculated them into the cells, which were then incubated for 1 h at 37 °C in a CO2 incubator. After incubation, the supernatant was removed, the cells were washed, and 100 µl of maintenance media was added. […] Finally, we measured the absorbance at λ = 570 nm via a plate reader (FLUOstar Omega Ω).

[5] = test system: Caspase-3 protein expression; test: Western blot of Caspase-3 protein expression in HSV-2-infected Vero cells; format: cell-based, African green monkey; details: HSV-2-infected Vero cells (MOI = 1) treated at IC50; 1, 3, 6, 12 and 24 h postinfection
Description: A 3 ml cell suspension was cultured in six-well cell culture plates supplemented with complete DMEM and then incubated at 37 °C in a 5% CO2 incubator for 24 h. After incubation, the supernatant was discarded, and the cell monolayer was washed with 3 ml of 1x PBS. The cell monolayer was then treated in duplicate according to the IC50. Duplicates for cell and virus control were included. The cell pellets were collected at 1, 3, 6, 12, and 24 h postinfection. The cell pellets were lysed with ice-cold RIPA lysis buffer supplemented with fresh protease inhibitor cocktail, incubated for 30 min on ice, and centrifuged at 15,000 RPM at 4 °C for 20 min, after which the supernatant was transferred to a fresh tube. The total water-soluble protein concentration was quantified via a bicinchoninic acid protein assay kit (Micro BCA™ Protein Assay Kit, REF: 23235; Thermo Scientific). Ten micrograms of protein were loaded in 2x Laemmli buffer and separated via 12% sodium dodecyl sulfate–polyacrylamide gel electrophoresis (SDS‒PAGE) along with a protein ladder (Cat. No. PM008-0500, GeneDirex, Taiwan). The proteins were transferred to a 0.2 μm PVDF membrane (REF.03010040001, Sigma Aldrich, St. Louis, MO, USA) by a Mini-PROTEAN® Tetra Cell and Mini Trans-Blot (Bio-Rad) in transfer buffer (Bio-Rad Tris/Glycine transfer buffer Cat. #1610734) for 45 min at 100 V and 350 mA. β-actin (REF. No. MA5-11869; Invitrogen) was detected as a housekeeping protein against the Caspase-3 mAb (REF. No. 9662 S, Cell Signaling, Danvers, MA, USA) at a 1:1000 dilution via horseradish peroxidase-conjugated anti-mouse IgG (61-6520; Invitrogen) and anti-rabbit IgG (31460; Invitrogen) diluted 1:3000. Bands were detected via SuperSignal™ West Pico PLUS Chemiluminescent Substrate enhanced chemiluminescence (ECL, REF. 34577, Thermo Scientific, USA). Images were captured with a Bio-Rad ChemiDoc gel documentation imaging system and analyzed by Image Lab (Bio-Rad 6.1).

[6] = test system: herpes simplex virus type 2 (HSV-2); test: Inhibition mechanism of action: virucidal; format: cell-based, human herpes simplex virus type 2; details: compound mixed with HSV-2 (MOI = 1) 1 h at room temperature before inoculation of Vero cells, 72 h, MTT
Description: as §1

Structure (SMILES) | CC50 at 72 h [1] [µg/mL] | IC50 [2] [µg/mL] | inhibition of HSV-2 adsorption [3] [%] | inhibition of HSV-2 replication [4] [%] | Caspase-3 protein expression level vs HSV-2 virus control [5] | inhibition by virucidal mechanism [6] [%] | SI [2]
CSC1NC(=O)C(C#N)C2(CCCCC2)N1 (stereo not drawn) [Compound 2] | 566 (≈ 2360 µM) | 130 (≈ 544 µM) | 32 | 26 | decreased; also recorded: slight changes | 8 | 
CC(=O)C(SC1NC(=O)C(C#N)C2(CCCCC2)N1)C(=O)Nc1ccccc1 (stereo not drawn) [Compound 3, 2-((5-cyano-4-oxo-1,3-diazaspiro[5.5]undecan-2-yl)thio)-3-oxo-N-phenylbutanamide] | 509 (≈ 1270 µM) | 45.4 (≈ 113 µM) |  | 34 | decreased; also recorded: significant decrease | 8 | 
N#CC1(/N=N/c2ccccc2)C(=O)NC(=S)NC12CCCCC2 (stereo not drawn) [Compound 5a] | 43.9 (≈ 134 µM) | 974 (≈ 2970 µM) |  |  |  |  | 0.045
N#CC1(/N=N/c2ccc(S(N)(=O)=O)cc2)C(=O)NC(=S)NC12CCCCC2 (stereo not drawn) [Compound 5b] | 124 (≈ 306 µM) | 536 (≈ 1320 µM) |  |  |  |  | 0.231
N#CC1(/N=N/c2ccc(S(=O)(=O)Nc3ncccn3)cc2)C(=O)NC(=S)NC12CCCCC2 (stereo not drawn) [Compound 5c] | 53.7 (≈ 111 µM) | 13.9 (≈ 28.8 µM) | 42 | 30 | decreased; also recorded: slight changes | 15 | 3.84
N#CC1(/N=N/c2ccc(S(=O)(=O)Nc3ccccn3)cc2)C(=O)NC(=S)NC12CCCCC2 (stereo not drawn) [Compound 5d] | 466 (≈ 963 µM) | 217 (≈ 449 µM) |  |  |  |  | 2.14
N#CC1(/N=N/c2ccc(Cl)cc2)C(=O)NC(=S)NC12CCCCC2 (stereo not drawn) [Compound 5e] | 103 (≈ 284 µM) | 346 (≈ 956 µM) |  |  |  |  | 0.296
N#CC1(/N=N/c2ccc(S(=O)(=O)Nc3nccs3)cc2)C(=O)NC(=S)NC12CCCCC2 (stereo not drawn) [Compound 5f] | 107 (≈ 219 µM) | 399 (≈ 814 µM) |  |  |  |  | 0.268
CC(=O)C(SC1NC(=O)C(C#N)(/N=N/c2ccc(Cl)cc2)C2(CCCCC2)N1)C(C)=O (stereo not drawn) [Compound 6a] | 62.4 (≈ 135 µM) | 53.8 (≈ 116 µM) |  |  |  |  | 1.15
CC(=O)C(SC1NC(=O)C(C#N)(/N=N/c2ccc(S(N)(=O)=O)cc2)C2(CCCCC2)N1)C(C)=O (stereo not drawn) [Compound 6b] | 940 (≈ 1860 µM) | 5410 (≈ 10700 µM) |  |  |  |  | 0.173
CC(=O)C(SC1NC(=O)C(C#N)(/N=N/c2ccc(S(=O)(=O)Nc3ccccn3)cc2)C2(CCCCC2)N1)C(C)=O (stereo not drawn) [Compound 6c] | 42.1 (≈ 72.1 µM) | 749 (≈ 1280 µM) |  |  |  |  | 0.056
